# “Also recorded” adds a separate entry of the source.
# How the values were obtained:
# CL-1-0 = assay: Doxorubicin sensitization, MTS viability assay; type: cell-based, human; conditions: Homo sapiens, CL1-0, vehicle 72 h, doxorubicin 4 h, viability after 2 days, read-out: IC50 of doxorubicin treatment, Vehicle
# Description: (§1) FIG. 16. In vitro and in vivo effect of YMU1 on doxorubicin sensitization. (A) A panel of cell lines were pre-treated with vehicle, YMU1 (compound 21), D6 (ethyl 4-(2-chloroacetyl)piperazine-1-carboxylate) or D7 (compound 28) for 3 days and were exposed to different concentration of doxorubicin for 4 h. […] The enhancement (fold) of doxorubicin sensitivity in each cell line was calculated. Data represent mean±s.d., n=3; each experiment was quadruplex. Inset indicates the IC50 value of doxorubicin in various cell lines. […] Following overnight culture, cells were refreshed with growth medium. After 14 days of culture, colonies were fixed, stained by crystal violet and counted. (C) HCT-116 p53^−/− cells were subcutaneously implanted in the right flank of Balb/c nude mice (each experimental group n=8). Arrow indicated the time of stopping drug treatment. The tumor volume was estimated as described in Methods of the Invention section. (D) After 2 weeks recovered from treatment, mice were sacrificed for tumor weight measurement. Data represent mean±s.e.m; **, P<0.01 by a two-tailed Student's t-test. (E) Ki 67 proliferation marker staining of tumor shown in left panel. Scale bar, 50 μm. (F) Model of doxorubicin sensitization by YMU1 in malignant cancer cells. Both R2/R1 and TMPK are recruited to the site of doxorubicin-induced double-strand breaks, where dATP, dGTP, dCTP, dTTP and dUTP are site-specific synthesized. Inhibition of TMPK decreases dTTP formation at DNA damage sites, causing futile DNA repair due to dUTP incorporation.
# (§2) Next, various human cancer cell lines were treated with YMU1, D6 or D7 for 72 h to test the potential of TMPK inhibitor in doxorubicin sensitization. After exposure to different concentration of doxorubicin for 4 h, cells were refreshed for viability analysis after 2 days and the IC50 value for doxorubicin in each of the cell lines was determined (FIG. 16A and Table 2).
# (§3) Cells plated into a 96-well plate (10^3 cells/well) were treated and cell viability was measured by MTS assay (Promega) (Cory et al., 1991). An annexin V-fluorescein isothiocyanate (FITC) apoptosis kit (Calbiochem) was used to detect apoptosis. The cell cycle analysis was performed by staining cells with propidium iodide (PI) for fluorescence-activated cell sorter (FACS) analysis with CellQuest software.
# Capan1 = assay: Doxorubicin sensitization, MTS viability assay; type: cell-based, human; conditions: Homo sapiens, CAPAN-1, vehicle 72 h, doxorubicin 4 h, viability after 2 days, read-out: IC50 of doxorubicin treatment, Vehicle
# Description: as §1, §2, §3
# H1299 = assay: Doxorubicin sensitization, MTS viability assay; type: cell-based, human; conditions: Homo sapiens, NCI-H1299, vehicle 72 h, doxorubicin 4 h, viability after 2 days, read-out: IC50 of doxorubicin treatment, Vehicle
# Description: as §1, §2, §3
# H184B5F5/M10 = assay: Doxorubicin sensitization, MTS viability assay; type: cell-based, human; conditions: Homo sapiens, vehicle 72 h, doxorubicin 4 h, viability after 2 days, read-out: IC50 of doxorubicin treatment, Vehicle
# Description: as §1, §2, §3
# HCC1037 = assay: Doxorubicin sensitization, MTS viability assay; type: cell-based, human; conditions: Homo sapiens, vehicle 72 h, doxorubicin 4 h, viability after 2 days, read-out: IC50 of doxorubicin treatment, Vehicle
# Description: as §1, §2, §3
# HCT-116p53+/+ = assay: Doxorubicin sensitization, MTS viability assay; type: cell-based, human; conditions: Homo sapiens, vehicle 72 h, doxorubicin 4 h, viability after 2 days, read-out: IC50 of doxorubicin treatment, Vehicle
# Description: as §1, §2, §3
# HCT-116p53−/− = assay: Doxorubicin sensitization, MTS viability assay; type: cell-based, human; conditions: Homo sapiens, vehicle 72 h, doxorubicin 4 h, viability after 2 days, read-out: IC50 of doxorubicin treatment, Vehicle
# Description: as §1, §2, §3
# HMEC = assay: Doxorubicin sensitization, MTS viability assay; type: cell-based, human; conditions: Homo sapiens, vehicle 72 h, doxorubicin 4 h, viability after 2 days, read-out: IC50 of doxorubicin treatment, Vehicle
# Description: as §1, §2, §3
# HREC = assay: Doxorubicin sensitization, MTS viability assay; type: cell-based, human; conditions: Homo sapiens, vehicle 72 h, doxorubicin 4 h, viability after 2 days, read-out: IC50 of doxorubicin treatment, Vehicle
# Description: as §1, §2, §3
# HT-29 = assay: Doxorubicin sensitization, MTS viability assay; type: cell-based, human; conditions: Homo sapiens, vehicle 72 h, doxorubicin 4 h, viability after 2 days, read-out: IC50 of doxorubicin treatment, Vehicle
# Description: as §1, §2, §3
# IMR-90 = assay: Doxorubicin sensitization, MTS viability assay; type: cell-based, human; conditions: Homo sapiens, vehicle 72 h, doxorubicin 4 h, viability after 2 days, read-out: IC50 of doxorubicin treatment, Vehicle
# Description: as §1, §2, §3
# MCF-10A = assay: Doxorubicin sensitization, MTS viability assay; type: cell-based, human; conditions: Homo sapiens, vehicle 72 h, doxorubicin 4 h, viability after 2 days, read-out: IC50 of doxorubicin treatment, Vehicle
# Description: as §1, §2, §3
# MDA-MB468 = assay: Doxorubicin sensitization, MTS viability assay; type: cell-based, human; conditions: Homo sapiens, MDA-MB-468, vehicle 72 h, doxorubicin 4 h, viability after 2 days, read-out: IC50 of doxorubicin treatment, Vehicle
# Description: as §1, §2, §3
# SaoS2 = assay: Doxorubicin sensitization, MTS viability assay; type: cell-based, human; conditions: Homo sapiens, SAOS-2, vehicle 72 h, doxorubicin 4 h, viability after 2 days, read-out: IC50 of doxorubicin treatment, Vehicle
# Description: as §1, §2, §3
# U2OS = assay: Doxorubicin sensitization, MTS viability assay; type: cell-based, human; conditions: Homo sapiens, vehicle 72 h, doxorubicin 4 h, viability after 2 days, read-out: IC50 of doxorubicin treatment, Vehicle
# Description: as §1, §2, §3
# panel of cell lines = assay: Doxorubicin sensitization, MTS viability assay, summary over the panel of cell lines; type: cell-based, human; conditions: all these cell lines; 72 h pre-treatment
# Description: as §1, §2
# The ability of YMU1 to sensitize non-tumorigenic mammary cycling H184B5F5/M10, MCF10A, primary human mammary epithelial (HMEC) and primary renal epithelial (HREC) cells and IMR-90 embryonic lung fibroblasts to doxorubicin was much weaker.
# as §3
# TMPK [1] = target: T1, TMPK (Homo sapiens, UniProt P23919); assay: Luciferase-coupled TMPK assay; type: biochemical; parameters: GST (N, cleaved yes); made in house; host or cells: E. coli JM109 (pGEX-2T-hTMPK); conditions: purified hTMPK protein (0.5 μg), 10 min preincubation; listed as D7
# T1 sequence (P23919 1-212): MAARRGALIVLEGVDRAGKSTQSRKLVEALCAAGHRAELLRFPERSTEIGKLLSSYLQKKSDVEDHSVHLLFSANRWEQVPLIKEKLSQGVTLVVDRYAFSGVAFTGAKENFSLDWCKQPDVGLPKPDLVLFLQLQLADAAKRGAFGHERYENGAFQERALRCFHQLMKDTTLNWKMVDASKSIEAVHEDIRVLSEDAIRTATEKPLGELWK
# Description: FIG. 12. Identification of a novel hTMPK inhibitor. (A) A screen of TMPK inhibitor by luciferase-coupled assay. (B) The chemical structures of YMU1 (compound 21) and related molecules. (C) Effect of YMU1 and derivative compounds on hTMPK inhibition using purified hTMPK protein (0.5 μg) with 10 min preincubation prior to reaction using luciferase-coupled TMPK analysis. (D) Effect of YMU1 on activity of purified TMPK (0.5 μg) and GST-hTK1 protein (5 μg) with 10 min preincubation prior to reaction. Data represent mean±s.d. (n=4) (E) Molecular models of the TMPK-YMU1 complex. Left panel: TMPK/ATP/Mg+2; right panel: TMPK/YMU1. The TMPK is represented in surface electrostatic potential (upper) and structural ribbon (lower). ATP and YMU1 are shown in green and blue stick, respectively, with colored atom (O, red; S, yellow; P, orange). TMP is shown in white backbone and Mg+2 in purple. Arrow indicates the position of Asp15.
# Based on the functional requirement of TMPK in DNA repair specifically in tumor cells with elevated level of R2 expression, we searched for inhibitors of hTMPK that might be useful in selectively sensitizing tumor cells to doxorubicin. […] The synthetic procedure and structural elucidation of YMU1 (compound 21) are described in the Methods of the Invention section of the application.
# The TMPK reaction was started by adding purified hTMPK in 50 μl of TMPK assay buffer (100 mM Tris-HCl, pH 7.5, 100 mM KCl, 10 mM MgCl2, 50 μM ATP and 100 μM dTMP) in 96 wells plate at 25° C. for 10 min and terminated by adding 200 μl of DTNB (100 μM), followed by transferring 10 μl of reaction solution to a white 96-wellplate containing 90 μl of luciferase assay buffer (50 mM Glycine, 0.5 mM EDTA and 5 mM EDTA, pH 7.0, 0.1 μg of luciferase, 50 μM luciferin and 0.1% BSA). The luminescence was measured with a luminescence counter (Packard).
# TMPK [2] = target: T1, TMPK; assay: In vitro TMPK inhibitory activity of TMPK inhibitor derivatives (inhibition yield); type: biochemical; parameters: GST (N, cleaved yes); made in house; host or cells: E. coli JM109 (pGEX-2T-hTMPK), inferred; conditions: 2 μM; n=3 or 6; read-out: inhibition yield, normalized to compound 21 (YMU1) = 100%
# Source text: Chemical structures of the different TMPK inhibitor derivatives tested for in vitro TMPK inhibitory activity and in vivo doxorubicin sensitization activity (in MDA-MB231 cells) are depicted below.
# HCT-116 p53−/− cells = assay: γH2AX foci staining for induction of DNA damage (genomic toxicity); type: cell-based, human; conditions: YMU1 2 μM 2 days; FdUrd 2 μM 1 day
# Source text: FIG. 14. Effect of YMU1 on genomic toxicity and DNA repair. […] After overnight, cells were exposed to doxorubicin and recovered. […]
# TMPK and TS are key enzymes in dTTP synthesis and TS has been a major chemotherapy target (Garg et al., 2010). Inhibition of TS by FdUrd causes genome toxicity (Longley et al., 2003). Given the shared role of TMPK and TS in dTTP synthesis, we next compared the effects of blocking TMPK and TS by either shRNA interference or inhibitor treatment on the induction of DNA damage.
# For γH2AX, Rad51 and XRCC1 staining, cells were fixed with 4% paraformaldehyde for 30 min at room temperature and were incubated with TBS (50 mM Tris-HCl, pH 7.4, 150 mM NaCl) plus 0.3% Triton X-100 for 5 min. The coverslips were blocked with MAXblock™ (Active Motif) for 1 h at 37° C., followed by staining with primary antibodies: anti-γH2AX monoclonal antibody (1:1000), anti-Rad51 polyclonal antibody (1:500) or anti-XRCC1 monoclonal antibody (1:500) overnight at 4° C. After extensive washing, cells were stained with secondary antibodies and Hoechst 33342 for 1 h at room temperature. After mounting, cells were analyzed and photographed with a Carl Zeiss fluorescence microscope equipped with AxioCam digital camera and Axio Vision Rel. 4.8 imaging software.
# [3] = tested on: H184B5F5/M10, MCF-10A, MCF-7 and HCT-116 p53−/− cells; assay: Colony assay of cell viability, YMU1 versus FdUrd; conditions: various concentrations thrice a week, 14 days
# Description: (B) H184B5F5/M10 cells were seeded onto 100 mm-dish at 5,000 cells/dish. MCF-10A, MCF-7 and HCT-116 p53^−/− cells were seeded onto 6 well plate at 600 cells/well. Following overnight culture, cells were treated with various concentration of YMU1 or FdUrd thrice a week. After 14 days colonies were fixed, stained by crystal violet.
# We also compared the effect of YMU1 and FdUrd on cell viability of non-tumorigenic mammary cycling cells, H184B5F5/M10 and MCF-10A and tumor lines, MCF-7 and HCT-116 p53^−/− cells.
# After 14 days, colonies were fixed and stained by crystal violet and counted.
structure (smiles),measurement,setting,value
"COc1cccc2c1C(=O)c1c(O)c3c(c(O)c1C2=O)C[C@@](O)(C(=O)CO)C[C@@H]3O[C@H]1C[C@H](N)[C@H](O)[C@H](C)O1 [doxorubicin, reference compound]",IC50,CL-1-0,4.9 ± 0.2 µM
same,IC50,Capan1,1.13 ± 0.02 µM
same,IC50,H1299,7.19 ± 0.77 µM
same,IC50,H184B5F5/M10,4.15 ± 0.06 µM
same,IC50,HCC1037,5.52 ± 0.39 µM
same,IC50,HCT-116p53+/+,2.66 ± 0.49 µM
same,IC50,HCT-116p53−/−,4.1 ± 0.01 µM
same,IC50,HMEC,23.6 ± 1.23 µM
same,IC50,HREC,22.1 ± 1.18 µM
same,IC50,HT-29,12.1 ± 1.64 µM
same,IC50,IMR-90,14.2 ± 3.21 µM
same,IC50,MCF-10A,5.22 ± 0.39 µM
same,IC50,MDA-MB468,0.25 ± 0.08 µM
same,IC50,SaoS2,7.83 ± 0.02 µM
same,IC50,U2OS,4.58 ± 0.14 µM
"CCOC(=O)N1CCN(C(=O)COc2nsc3nc(C)cc(C)c23)CC1 [compound 28, Ethyl 4-(2-(4,6-dimethylisothiazolo[5,4-b]pyridin-3-yloxy)acetyl)piperazine-1-carboxylate]",doxorubicin sensitization effect,panel of cell lines,had no doxorubicin sensitization effect
same,melting point,,88 to 90 °C
same,inhibition against hTMPK,TMPK [1],Neither D6 (as the piperazine fragment of YMU1) nor D7 (as the O-alkylation isomer of YMU1) showed any inhibition; also recorded: do not inhibit TMPK
same,inhibition at 2 µM,TMPK [2],14.7%
"O=c1[nH]c(=O)n([C@H]2C[C@H](O)[C@@H](CO)O2)cc1F [FdUrd, 5-fluoro-2′deoxyuridine]",induction of DNA damage (γH2AX staining),HCT-116 p53−/− cells,induced severe DNA damage
same,death of cells in colony assay,[3],caused death of these cells
